Measured values as given in patent EP0866075B1, “Method to treat microbial infections by uncoupling of phosphotransferase system and appropriate agents therefor” (Arpida AG,, priority 1997, dated 1998).
In brackets after ≈: the same amount, converted by molar mass. Where two headings read alike, the source gives them in different places. No end group written: not given here.

Columns and labels:
enzyme I = target: T1, enzyme I (Escherichia coli, UniProt P08839); experiment: biochemical; design: species or system E. coli
T1 construct: 3 µM each of purified HPr and enzyme I (Mao et al., 1995); made in house
From the text: Fig. 2. Assays for the screening, selection and characterization of inhibitory compounds from combinatorial libraries. Reaction products that can be determined experimentally are boxed. The inhibitory compound X can be in soluble form, immobilized on a filamentous phage, or bound to a microtiter well. The transporter for GlcNAc (shaded in grey) contains the IIA, IIB and IIC functional units as domains of a single polypeptide chain. • (a) Binding of Enzyme I to immobilized ligands, e.g. filamentous phages from a phage display library or synthetic peptides from a combinatorial peptide library was detected using [^1251]-Enzyme I and autoradiography. • (b) Phosphorylation by Enzyme I. To identify peptides and filamentous phages displaying a peptide which can be phosphorylated by Enzyme 1, support based peptide libraries and immobilized peptide-displaying phages were incubated over night with enzyme I in the presence of [^32P]phosphoenolpyruvate, and the phosphorylated species were detected with a PhosphorImager. […] A conventional and well established assay to colorimetrically detect the formation of inorganic phosphate has been adapted to the specific needs. The assay can be performed in microtiter plates and quantitated with a microplate photoreader. Another assay to monitor phosphatase activity of soluble compounds is based on the detection of pyruvate which is continuously produced from phosphoenolpyruvate whenever enzyme I is dephosphorylated. The enzyme I-specific phosphatase activity of soluble compounds can be detected from the pyruvate burst. The rate of pyruvate formation is monitored with lactate dehydrogenase and NADH. The assay can be performed in microtiter plates and quantitated with a microplate photoreader. • (d) Inhibition of in vitro PTS activity. The inhibitory activity of soluble compounds can be measured quantitatively in the sugar phosphotransferase assay in the presence of the purified PTS proteins and with [^14C]GlcNAc ([^14C]N-acetyl-glucosamine) or (14C] Glc ([^14C]glucose) as terminal phosphate acceptor (Emi et al., 1982). • (e) Inhibition of PTS activity in bacteria. Compounds that specifically interfere with the PTS can also be detected in bacteria. Indicator E. coli (or any other bacteria) will be plated an two defined minimal salts media containing either glucose or a nonPTS Substrate e.g. lactose as the only carbon source. Compounds from chemical libraries are applied to both cultures.
Inhibition of phosphotransferase activity by soluble peptides. This assay measures the inhibition of enzyme I dependent sugar phosphorylation activity. […] The purified N-acetylglucosamine transporter (II^GlcNAc) of E.coli (Mukhija and Erni, 1996) was used as the sugar specific component. The reaction mixture contained per 100 µl, 100 µg phosphatidyl glycerol from egg yolk (Sigma), 50 mM KPi, pH 7.5, 2.5 mM dithiothreitol, 2.5 mM NaF, 5 mM MgCl2, […] (potassium salt, Sigma), 0.5 mM [U-^14C]GlcNAc (New England Nuclear; 56.3 mCi/mmol, diluted to 1000 cpm/nmol), and 3 µM each of purified HPr and enzyme I (Mao et al., 1995). The reaction was started by addition of 0.1 µg of II^GlcNAc. After incubation for 30 min at 37°C, the reaction was stopped by adding 1 ml ice-cold water. GlcNAc-6-Phosphate was separated from free GlcNAc by anion-exchange chromatography on AG-1-X2 (50-100 mesh, Biorad). Activity is expressed as nmoles of sugar-P formed after 30 min. The HPr concentration was adjusted such that it was rate limiting in the overall phosphotransferase reaction. The inhibitory peptides were added to concentrations of 25 µM to 10 mM. Phosphorylation of GlcNAc in the absences of peptide was taken as 100%.

E. coli K-12 UT580 [1] = experiment: Growth inhibition assay (filter discs on LB soft agar); format: cell-based; settings: E. coli K-12 UT580, LB agar, over night at 37°C
From the text: Fig. 4. Growth inhibition of E. coli K12 UT580. […]

E. coli K-12 UT580 [2] = experiment: microbe, parasite or virus in culture; settings: Escherichia coli, K12UT580, 24 h, read-out: growth inhibition MIC
Protocol: Growth inhibition assay. An over night culture of E. coli K-12 UT580 grown in LB-medium was diluted 1:30 into soft agar (0.7% agarose in LB broth) at 40°C, and 3 ml of the diluted cell suspension were spread an LB agar plates. Filter discs (4.4 mm diameter) were placed in regular intervals on the solidified top agar. To each filter was added 10 µl of one of the different peptide stock solutions (20 µM to 80 µM). The agar plates were incubated over night at 37°C. The area of the clear zone around each filter disc was determined. The clear area is taken as a measure for the growth inhibitory activity of the peptide.
Growth inhibition of E. coli K12 UT580. Peptides were added to filter discs and placed onto a cell culture in LB soft agar. The clear zones are indicative of growth inhibition (panel A).

[3] = peptides identified by phage display, 30 min at 37°C, HPr rate limiting, read-out: inhibition IC50
[4] = peptides from support-based combinatorial libraries, 30 min at 37°C, HPr rate limiting, read-out: inhibition IC50

Row | Compound | IC50 (enzyme I; [3]) [µM] | further results
1 | Ac-DGARLHYLF [compound 23] | 7600 | –
2 | RHITSL [compound 27, RHITSL] | 650 | –
3 | KKFHLRK [peptide 1, KKFHLRK] | – | IC50 (enzyme I): 150 µM; growth inhibition MIC (E. coli K-12 UT580 [1]): 125.8 µM
4 | KKFHIRKR [compound 9] | – | IC50 (enzyme I; [4]): 160 µM
5 | RLHYLF [compound 21, RLHYLF] | 375 | –
6 | KKWHKRKK [compound 8] | – | IC50 (enzyme I; [4]): 440 µM
7 | KISRHGKRGK [compound 18] | 140 | –
8 | RHYLLF [compound 26, RHYLLF] | 500 | –
9 | KKFDLRK [compound 3, KKFDLRK] | – | IC50 (enzyme I; [4]): 820 µM
10 | CN(C)[C@@H]1C(O)=C(C(N)=O)C(=O)[C@@]2(O)C(O)=C3C(=O)c4c(O)cccc4[C@@](C)(O)[C@H]3C[C@@H]12 [tetracycline] | – | MIC (E. coli K-12 UT580 [2]): 2.5 µM (≈ 1.11 µg/mL)
11 | RHRTLF [compound 25, RHRTLF] | 410 | –
12 | KGWHKRKK [compound 6] | – | IC50 (enzyme I; [4]): 530 µM
13 | KMSRHRKPGA [compound 16] | 100 | –
14 | MSRHRN [compound 29, MSRHRN] | 760 | –
15 | SGRKSTRVHHWLLVL [compound 15] | 60 | –
16 | GLRFGKTRVHYLVLG [compound 14] | 25 | –
17 | RHWSIF [compound 24, RHWSIF] | 400 | –
18 | RHITLF [compound 28, RHITLF] | 1380 | –
19 | KKWHRRKK [compound 7] | – | IC50 (enzyme I; [4]): 300 µM
20 | KKWHLRKR [compound 5] | – | IC50 (enzyme I; [4]): 30 µM; growth inhibition MIC (E. coli K-12 UT580 [1]): 63.0 µM
21 | KKFALRK [compound 2, KKFALRK] | – | inhibition IC50 (enzyme I; peptides from support-based combinatorial libraries, 30 min at 37°C, HPr rate limiting): none
22 | DGARLHYLF [compound 22] | 1200 | –
23 | KISRHGRPTG [compound 19] | 1070 | –
24 | RIHFIPRRGR [compound 20] | 280 | –
